According to US6399615B1, “Farnesyl protein transferase inhibitors” (Schering Corporation, priority 1997, dated 2002):

Legend:
[1] = target: farnesyl protein transferase (Homo sapiens, UniProt P49354+P49356); assay: FPT IC50 (inhibition of farnesyl protein transferase, in vitro enzyme assay); format: biochemical
Procedure: (§1) FPT IC50 (inhibition of farnesyl protein transferase, in vitro enzyme assay) and COS Cell IC50 (Cell-Based Assay) were determined following the assay procedures described in WO 95/10516, published Apr. 20, 1995. GGPT IC50 (inhibition of geranylgeranyl protein transferase, in vitro enzyme assay), Cell Mat Assay, and anti-tumor activity (in vivo anti-tumor studies) could be determined by the assay procedures described in WO 95/10516. The disclosure of WO 95/10516 is incorporated herein by reference thereto.

COS Cell = COS Cell IC50 (Cell-Based Assay); conditions: COS cells
Procedure: as §1

Human tumor cells = assay: Soft Agar Assay (anchorage-independent growth); format: cell-based; conditions: colony growth in soft agar
Procedure: Anchorage-independent growth is a characteristic of tumorigenic cell lines. Human tumor cells are suspended in growth medium containing 0.3% agarose and an indicated concentration of a farnesyl transferase inhibitor. The solution is overlayed onto growth medium solidified with 0.6% agarose containing the same concentration of farnesyl transferase inhibitor as the top layer. After the top layer is solidified, plates are incubated for 10-16 days at 37° C. under 5% CO2 to allow colony outgrowth. After incubation, the colonies are stained by overlaying the agar with a solution of MTT (3-[4,5-dimethyl-thiazol-2-yl]-2,5-diphenyltetrazolium bromide, Thiazolyl blue) (1 mg/mL in PBS). Colonies can be counted and the IC50's can be determined.

| SMILES | melting point | IC50 [1] [µM] | IC50 (COS Cell) [µM] | IC50 (Human tumor cells) [µM] |
| --- | --- | --- | --- | --- |
| O=C(O)C1CCC(CC(=O)N2CCC([C@H]3c4ncc(Br)cc4CCc4cc(Cl)cc(Br)c43)CC2)CC1 (stereo partly drawn) [Example 12] | – | 0.0019 | 0.01 | > 0.5 |
| NC(=O)[C@H]1C[C@@H]1C(=O)N1CCC([C@H]2c3ncc(Br)cc3CCc3cc(Cl)cc(Br)c32)CC1 [30 (compound 55.0)] | – | 0.0062 | 0.05 | – |
| COC(=O)[C@H]1C[C@@H]1C(=O)N1CCC([C@H]2c3ncc(Br)cc3CCc3cc(Cl)cc(Br)c32)CC1 [30 (compound 55.1)] | – | 0.025 | – | – |
| CC(C)(C)OC(=O)C[C@H]1CC[C@@H](C(=O)N2CCC([C@H]3c4ncc(Br)cc4CCc4cc(Cl)cc(Br)c43)CC2)CC1 [Example 9] | 98 to 102 °C | 0.044 | – | – |
| O=C(O)C[C@H]1CC[C@H](C(=O)N2CCC([C@H]3c4ncc(Br)cc4CCc4cc(Cl)cc(Br)c43)CC2)CC1 [Example 36] | – | 0.0102 | 0.5 | – |
| O=C(O)C=C1CCC(=CC(=O)N2CCC([C@H]3c4ncc(Br)cc4CCc4cc(Cl)cc(Br)c43)CC2)CC1 [Example 14] | 161 to 169 °C | 0.0052 | 0.055 | – |
| CC(C)(C)OC(=O)CC1CCC(CC(=O)N2CCC([C@H]3c4ncc(Br)cc4CCc4cc(Cl)cc(Br)c43)CC2)CC1 (stereo partly drawn) [Example 6] | 86 to 90 °C | 0.019 | – | – |
| NC(=O)Cc1ccc(CC(=O)N2CCC([C@H]3c4ncc(Br)cc4CCc4cc(Cl)cc(Br)c43)CC2)cc1 [Example 15] | – | 0.0036 | 0.1 | > 0.5 |
| CC(C)(C)OC(=O)C=C1CCC(=CC(=O)N2CCC([C@H]3c4ncc(Br)cc4CCc4cc(Cl)cc(Br)c43)CC2)CC1 [Example 7] | 113 to 117 °C | 0.11 | – | – |
| O=C(O)[C@H]1CC[C@H](C(=O)N2CCC([C@H]3c4ncc(Br)cc4CCc4cc(Cl)cc(Br)c43)CC2)CC1 [Example 5] | 138 to 140 °C | 0.046 | – | – |
| NC(=O)[C@@H]1C[C@H]1C(=O)N1CCC([C@H]2c3ncc(Br)cc3CCc3cc(Cl)cc(Br)c32)CC1 [Example 29 (compound 54.0)] | – | 0.0083 | – | – |
| COC(=O)[C@@H]1C[C@H]1C(=O)N1CCC([C@H]2c3ncc(Br)cc3CCc3cc(Cl)cc(Br)c32)CC1 [Example 29 (compound 54.1)] | – | 0.034 | – | – |
| CC(C)(C)OC(=O)C[C@H]1CC[C@H](C(=O)N2CCC([C@H]3c4ncc(Br)cc4CCc4cc(Cl)cc(Br)c43)CC2)CC1 [Example 10] | 98 to 102 °C | 0.091 | – | – |
| NC(=O)CC1CCC(CC(=O)N2CCC(C3c4ncc(Br)cc4CCc4cc(Cl)cc(Br)c43)CC2)CC1 (stereo not drawn) [Example 22] | 103 to 110 °C | 0.0063 | 0.022 | – |
| O=C(O)CC1CCC(CC(=O)N2CCC([C@H]3c4ncc(Br)cc4CCc4cc(Cl)cc(Br)c43)CC2)CC1 (stereo partly drawn) [Example 13] | – | 0.0015 | 0.01 | > 0.5 |
| O=C(O)C[C@H]1CC[C@@H](C(=O)N2CCC([C@H]3c4ncc(Br)cc4CCc4cc(Cl)cc(Br)c43)CC2)CC1 [Example 35] | – | 0.0033 | 0.07 | – |
| NC(=O)C1CCC(CC(=O)N2CCC(C3c4ncc(Br)cc4CCc4cc(Cl)cc(Br)c43)CC2)CC1 (stereo not drawn) [Example 23] | 145 to 152 °C | 0.0046 | 0.018 | – |

Now from value to compound, other results behind:

| melting point | IC50 [1] [µM] | SMILES | IC50 (COS Cell) [µM] | IC50 (Human tumor cells) [µM] |
| --- | --- | --- | --- | --- |
| 205 °C (dec.) | 0.0041 | O=C(O)Cc1cccc(CC(=O)N2CCC([C@H]3c4ncc(Br)cc4CCc4cc(Cl)cc(Br)c43)CC2)c1 [Example 4] | 0.4 | – |
| 94 to 97 °C | 0.0053 | COC(=O)CNC(=O)Cc1ccc(CC(=O)N2CCC([C@H]3c4ncc(Br)cc4CCc4cc(Cl)cc(Br)c43)CC2)cc1 [Example 18] | 0.45 | – |
| 94 to 100 °C | > 0.14 | O=C(Cc1ccc(CC(=O)N2CCC([C@H]3c4ncc(Br)cc4CCc4cc(Cl)cc(Br)c43)CC2)cc1)NCCO [Example 20] | – | – |
| 229 °C (dec.) | 0.066 | O=C(O)c1ccccc1CC(=O)N1CCC([C@H]2c3ncc(Br)cc3CCc3cc(Cl)cc(Br)c32)CC1 [Example 1] | – | – |
| 134 to 138 °C | 0.047 | O=C(NCc1ccncc1)c1ccccc1CC(=O)N1CCC([C@H]2c3ncc(Br)cc3CCc3cc(Cl)cc(Br)c32)CC1 [Example 24] | – | – |
| 86 to 90 °C | 0.0095 | COC(=O)CNC(=O)Cc1cccc(CC(=O)N2CCC([C@H]3c4ncc(Br)cc4CCc4cc(Cl)cc(Br)c43)CC2)c1 [Example 17] | 0.41 | – |
| 186 to 189 °C | 0.0016 | O=C(O)Cc1ccc(CC(=O)N2CCC([C@H]3c4ncc(Br)cc4CCc4cc(Cl)cc(Br)c43)CC2)cc1 [Example 3] | 0.38 | – |
| 81 to 86 °C | 0.0086 | COC(=O)Cc1ccc(CC(=O)N2CCC([C@H]3c4ncc(Br)cc4CCc4cc(Cl)cc(Br)c43)CC2)cc1 [Example 34] | 0.18 | – |
| 156 to 157 °C | 0.053 | O=C(NO)c1ccccc1CC(=O)N1CCC([C@H]2c3ncc(Br)cc3CCc3cc(Cl)cc(Br)c32)CC1 [Example 27] | – | – |
| 116 to 123 °C | 0.0047 | CONC(=O)Cc1ccc(CC(=O)N2CCC([C@H]3c4ncc(Br)cc4CCc4cc(Cl)cc(Br)c43)CC2)cc1 [Example 19] | 0.09 | – |
| 116 to 118 °C | 0.036 | COC(=O)CNC(=O)c1ccccc1CC(=O)N1CCC([C@H]2c3ncc(Br)cc3CCc3cc(Cl)cc(Br)c32)CC1 [Example 25] | – | – |
| 119 to 125 °C | 0.0063 | NC(=O)Cc1cccc(CC(=O)N2CCC([C@H]3c4ncc(Br)cc4CCc4cc(Cl)cc(Br)c43)CC2)c1 [Example 16] | 0.375 | – |
| 127 to 128 °C | 0.25 | O=C(Cc1ccccc1C(=O)N1CCC([C@H]2c3ncc(Br)cc3CCc3cc(Cl)cc(Br)c32)CC1)N1CCOCC1 [Example 11] | – | – |
| 136 to 138 °C | 0.056 | O=C(Cc1ccccc1C(=O)N1CCOCC1)N1CCC([C@H]2c3ncc(Br)cc3CCc3cc(Cl)cc(Br)c32)CC1 [Example 26] | – | – |
